From article PMC10725991, “Kaempferol is a novel antiviral agent against channel catfish virus infection through blocking viral attachment and penetration in vitro” (Frontiers in Veterinary Science, 2023)

Legend:
Format in all cases: cell-based, Channel catfish virus (CCV, Ictalurid herpesvirus 1)
[1] = test system: CCV (strain VR-665) in CCO cells; assay: Antiviral activity screening assay, CCV gene expression by RT-qPCR; conditions: maximum safe concentration, added 1 h after CCV infection, 36 h
Description: To test the anti-CCV effect of tested compounds in the preliminary screening, CCO cells were seeded in 24-well plates and cultured to reach approximately 90% confluence in each well at 28°C. Subsequently, the cells were infected with the CCV at 10^3 TCID50/ml at 28°C for 1 h. After that, the cell culture medium was replaced using an isopycnic DMEM medium containing the maximum safe concentration of indicated compounds. CCV-infected cells treated with DMSO served as a negative control, whereas CCV-infected cells treated with acyclovir (2.5 μg/mL) served as a positive control ([33]). […] According to the percentage inhibition results, we further detected the antiviral activity of kaempferol at maximum safe concentration by viral cytopathic effects (CPE) and western blot analysis.
(§1) For RT-qPCR, the total RNA was isolated from CCV-infected cells using RnaExTM (Trizol)^a reagent (GENERAY, China), and reversed transcribed applying a HiScript III RT SuperMix with gDNA wiper (Vazyme, China) following the manufacturer’s instructions. Quantitative PCR was performed with a LightCycler 96 Real-Time PCR Detection System (Roche, USA) using ChamQ Universal SYBR qPCR Master Mix (Vazyme, China) with the following cycle conditions: 95°C for 30 s, followed by 40 cycles of 95°C for 10 s and 60°C for 30 s. […] Fold changes of the selected gene vs 18 s (internal reference) were calculated by the 2^−△△Ct method. […]

[2] = test system: CCV-induced CPE in CCO cells; assay: CPE reduction assay
Description: To test the anti-CCV effect of tested compounds in the preliminary screening, CCO cells were seeded in 24-well plates and cultured to reach approximately 90% confluence in each well at 28°C. Subsequently, the cells were infected with the CCV at 10^3 TCID50/ml at 28°C for 1 h. After that, the cell culture medium was replaced using an isopycnic DMEM medium containing the maximum safe concentration of indicated compounds. CCV-infected cells treated with DMSO served as a negative control, whereas CCV-infected cells treated with acyclovir (2.5 μg/mL) served as a positive control ([33]). After 36 h treatment, cell lysates were collected to test the CCV gene expression by the RT-qPCR, and the percentage inhibition of CCV infection by individual compound was calculated. According to the percentage inhibition results, we further detected the antiviral activity of kaempferol at maximum safe concentration by viral cytopathic effects (CPE) and western blot analysis.
For analyzing the CPE reduction of viral infected CCO cells by kaempferol, the CCO cells were seeded in 24-well plates and cultured overnight at 28°C before infection. Then, the monolayer cells were infected with CCV at 10^3 TCID50/ml for 1 h. Subsequently, the infected cells were treated with kaempferol at different concentrations (2.5, 5, 7.5, 10, 12.5, and 15 μg/mL), respectively. […]

[3] = test system: CCV in CCO cells; assay: Virus penetration assay; conditions: kaempferol 15 μg/mL, 24 h
Description: Confluent CCO cells in 24-well plates were prechilled at 4°C, and then infected with CCV at 4°C for 1 h. After triple washing with pre-cooled PBS, the cells were treated with kaempferol (15 μg/mL) or medium at 28°C for 4 h. The compound dilutions were aspirated and the cells were rinsed with citrate buffer (pH 3.0) in order to inactivate and remove not penetrated virus. After incubated at 28°C for 24 h, the cells were collected for subsequent experiments, including RT-qPCR and viral titer.
Measurement of viral titer was described previously ([5]). In brief, CCO cells were cultured in 96-well plates, and they were infected with 10-fold serially diluted samples that were collected previously. At 72 h post-infection, the cells were directly observed under an inverted microscope. […]
as §1

Structure (SMILES): O=c1c(O)c(-c2ccc(O)cc2)oc2cc(O)cc(O)c12 [Kaempferol]
- inhibitory rate of CCV ORF 39 and 59 genes [1]: 99.9%
- CCV-induced CPE ([2]; kaempferol 10–15 μg/mL, until 36 h): no obvious CPE
- CPE induced by CCV infection ([2]; maximum safe concentration (47.53 μg/mL), 36 h post-infection): significantly reduced CPE
- down-regulation of viral internalization (CCV ORF 39/ORF 59, RT-qPCR) vs CCV control ([3]; 4 h at 28°C): more than 50%
- production of intracellular virus (virus titer), penetration assay [3]: significantly reduced
